Experimental data taken from patent publication US12551524B2 (U.S. NUTRACEUTICALS, INC., priority 2021, dated 2026).

Tests used:
[1] = tested on: men with mild to moderate androgenic alopecia; settings: 1 milligram per day, 24 months, 100 men; cited from earlier work
normal shaved mice = settings: after about 20 days; cited from earlier work
[2] = biological target: T1, 5α-Reductase Type 2 enzyme (Homo sapiens, UniProt P31213); assay: Inhibition of 5α-Reductase Type 2 (Inhibition Experiments 1 and 2); type: biochemical
T1 sequence (P31213 1-254): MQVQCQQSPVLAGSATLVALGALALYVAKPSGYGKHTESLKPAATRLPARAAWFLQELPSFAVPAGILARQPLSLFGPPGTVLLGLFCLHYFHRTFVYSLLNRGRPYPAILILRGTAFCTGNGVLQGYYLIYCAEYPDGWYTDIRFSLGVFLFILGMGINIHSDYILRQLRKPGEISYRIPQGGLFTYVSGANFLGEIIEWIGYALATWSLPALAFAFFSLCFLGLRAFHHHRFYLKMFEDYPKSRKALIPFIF
Source text: (§1) The different free fatty acids of medium and long saturated chains and long unsaturated chains are shown, together with esterified fatty acids, oxidized fatty acids, fatty alcohols, phytosterols, and other components. The magnitude of the activity is designated by “none,” “moderate” or “very active” (FIG. 3). The various constituents shown in the table of FIG. 2 are also shown and listed as free fatty acid molecules with: a) medium, saturated chains, b) long, saturated chains, and c) long unsaturated chains. There are esterified fatty acids, oxidized fatty acids, and fatty alcohols. These tables support other evidence that the five active free fatty acids for prostate and hair health are lauric, myristic, oleic, linoleic and linolenic free fatty acids.
Data are shown in the graphs and bar charts of FIGS. 5 and 6 where data are reported as the effectiveness to inhibit enzyme activity (IC50). […]
Inhibition Experiment 2 shown in FIG. 6 determined the possible impact of Permixon® product matrix (PEG) on an in vitro assay and the pegylated and conventional ultra-high purity supercritical CO2 extract having the PEG matrix (U4602-PEG) was compared to the commercially available Permixon® and the conventional unpegylated product (U4602) for their ability to inhibit the 5α-Reductase 2 enzyme. […]

[3] = biological target: T2, 5α-Reductase Type 1 enzyme (Homo sapiens, UniProt P18405); assay: Inhibition of 5α-Reductase Type 1; type: biochemical
T2 sequence (P18405 1-259): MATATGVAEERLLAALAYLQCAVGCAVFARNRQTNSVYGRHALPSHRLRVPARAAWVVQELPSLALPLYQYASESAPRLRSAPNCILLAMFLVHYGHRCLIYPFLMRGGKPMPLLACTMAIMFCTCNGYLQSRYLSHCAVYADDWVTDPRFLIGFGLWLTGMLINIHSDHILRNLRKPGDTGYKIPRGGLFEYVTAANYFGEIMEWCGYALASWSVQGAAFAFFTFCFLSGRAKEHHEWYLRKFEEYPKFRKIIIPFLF
Source text: as §1
Reference is now made to FIGS. 7B and 7C showing the use of a supercritical CO2 extracted LSESr and Permixon®.

Q: Which “men who noted an improvement” value [1] does the source give for `CC(C)(C)NC(=O)[C@H]1CC[C@H]2[C@@H]3CC[C@H]4NC(=O)C=C[C@]4(C)[C@H]3CC[C@]12C` [finasteride] here?
A: 68%

Q: With `CCCCC/C=C\C/C=C\CCCCCCCC(=O)O` [linoleic acid] as the compound, how does the hair growth (normal shaved mice) read?
A: about 100%

Q: Which results are given for `CCCCCCCC/C=C\CCCCCCCC(=O)O` [oleic acid]?
A: effect on 5α-Reductase-2 (in words) [2]: not as much; effect on 5α-Reductase-1 (in words) [3]: especially effective
